The source of these data is patent US20240368214A1, “POSITIVE NMDA-MODULATING COMPOUNDS AND METHODS OF USE THEREOF” (SAGE THERAPEUTICS, INC., priority 2021, published 2024).

For this assay, the target named is T1, recombinant human GluN1/GluN2A receptor (Homo sapiens, UniProt Q05586+Q12879).
T1 construct: expressed in transfected cells; host or cells: HEK293, tetracycline-inducible expression
Briefly: Whole-cell patch clamp of mammalian cells (Syncropatch 384i), NMDA modulation. Type of assay: cell-based. Conditions: Table H-2; HEK293 cells, human GluN1/GluN2A; glutamate 1 μM / glycine 100 μM; -80 mV; peak amplitude increase; read-out: EC50. Put shortly: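 Modulation read as fold rise in peak current, (Icomp/Icontrol)−1, from 8 concentrations with ≥2 wells each, four-parameter fit. Compound pre-incubated 120 s then co-applied with 1 μM glutamate plus 100 μM glycine; tetracycline-inducible HEK293 GluN1/GluN2A cells clamped at −80 mV.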
(The patch-clamp technique gives a direct electrical read-out from membranes.)

T1 sequence (Q12879 23-1464, other chains not shown): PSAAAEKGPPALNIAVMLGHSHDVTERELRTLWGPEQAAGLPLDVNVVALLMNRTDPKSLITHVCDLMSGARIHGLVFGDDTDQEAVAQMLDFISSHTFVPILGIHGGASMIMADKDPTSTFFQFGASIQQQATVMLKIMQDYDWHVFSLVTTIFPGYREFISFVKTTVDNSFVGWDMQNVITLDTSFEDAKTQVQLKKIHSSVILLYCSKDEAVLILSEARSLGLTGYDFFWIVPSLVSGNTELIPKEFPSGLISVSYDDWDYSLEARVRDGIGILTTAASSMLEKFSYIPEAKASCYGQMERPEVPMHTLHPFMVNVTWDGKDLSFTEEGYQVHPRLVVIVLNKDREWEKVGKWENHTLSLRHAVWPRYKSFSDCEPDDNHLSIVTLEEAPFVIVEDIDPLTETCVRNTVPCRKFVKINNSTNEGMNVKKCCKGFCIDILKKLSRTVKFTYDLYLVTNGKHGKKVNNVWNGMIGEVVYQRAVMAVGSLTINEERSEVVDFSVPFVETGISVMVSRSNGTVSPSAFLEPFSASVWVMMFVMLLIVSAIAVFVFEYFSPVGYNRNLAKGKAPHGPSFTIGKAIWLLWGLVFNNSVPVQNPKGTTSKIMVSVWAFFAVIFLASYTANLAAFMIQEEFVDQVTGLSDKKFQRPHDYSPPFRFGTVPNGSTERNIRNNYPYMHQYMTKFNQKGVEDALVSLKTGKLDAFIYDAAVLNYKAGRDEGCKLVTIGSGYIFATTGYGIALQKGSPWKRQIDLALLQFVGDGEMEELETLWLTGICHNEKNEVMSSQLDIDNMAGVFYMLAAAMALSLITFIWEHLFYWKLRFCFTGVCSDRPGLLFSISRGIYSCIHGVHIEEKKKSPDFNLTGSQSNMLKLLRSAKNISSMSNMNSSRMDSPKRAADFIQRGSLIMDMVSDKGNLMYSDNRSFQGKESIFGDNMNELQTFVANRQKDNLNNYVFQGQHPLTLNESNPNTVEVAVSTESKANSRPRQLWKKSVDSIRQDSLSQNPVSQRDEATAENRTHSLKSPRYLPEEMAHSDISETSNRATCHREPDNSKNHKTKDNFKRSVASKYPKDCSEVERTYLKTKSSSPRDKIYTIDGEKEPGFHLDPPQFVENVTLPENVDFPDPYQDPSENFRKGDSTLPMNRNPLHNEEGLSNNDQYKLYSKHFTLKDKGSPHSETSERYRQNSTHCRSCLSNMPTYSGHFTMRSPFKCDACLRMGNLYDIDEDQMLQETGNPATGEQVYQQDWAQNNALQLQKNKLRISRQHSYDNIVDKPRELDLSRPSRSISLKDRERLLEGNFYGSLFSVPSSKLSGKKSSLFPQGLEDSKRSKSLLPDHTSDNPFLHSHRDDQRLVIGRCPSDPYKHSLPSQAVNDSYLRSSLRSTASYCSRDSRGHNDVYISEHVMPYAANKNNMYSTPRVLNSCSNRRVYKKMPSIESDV

What is called EC50 is the concentration at which the effect is half-maximal. In the case of `CC[C@]1(O)CC[C@@]2(C)C(=CC[C@H]3[C@@H]4CCC[C@H]([C@H](C)CC[C@@](C)(O)C(F)(F)F)[C@@]4(C)CC[C@@H]32)C1` [Compound H-10, (2S,4aR,4bS,6aR,7R,10aS,10bS)-2-ethyl-4a,6a-dimethyl-7-((2R,5R)-6,6,6-trifluoro-5-hydroxy-5-methylhexan-2-yl)-1,2,3,4,4a,4b,5,6,6a,7,8,9,10,10a,10b,11-hexadecahydrochrysen-2-ol], the EC50 was in the range of 500 to 1000 nM.
As for `C[C@H](CC[C@@](C)(O)C(F)(F)F)[C@H]1CCC[C@H]2[C@@H]3CC=C4C[C@@](C)(O)CC[C@]4(C)[C@H]3CC[C@]12C` [Compound H-11, (2S,4aR,4bS,6aR,7R,10aS,10bS)-2,4a,6a-trimethyl-7-((2R,5R)-6,6,6-trifluoro-5-hydroxy-5-methylhexan-2-yl)-1,2,3,4,4a,4b,5,6,6a,7,8,9,10,10a,10b,11-hexadecahydrochrysen-2-ol], the EC50 lay within 100 to 500 nM.
